From patent publication US20110178154A1, “GENE EXPRESSION PROFILE THAT PREDICTS OVARIAN CANCER SUBJECT RESPONSE TO CHEMOTHERAPY” (priority 2007, published 2011)
d = 2'-deoxy (DNA); r = 2'-OH (RNA)

Tests used:
[1] = system: A2780CP20 ovarian cancer cell line; assay: MTS proliferation assay: cisplatin sensitivity after siRNA pretreatment; assay type: cell-based; details: for fold change in cisplatin sensitivity: A2780CP20 cells, compared to siNEG
Procedure: Cell culture and RNA interference. Ovarian cancer cell lines were routinely maintained in medium supplemented with 10% fetal bovine serum and 2 mM L-glutamine. SKOV3 and OVCAR3 cell lines were maintained in RPMI-1640 medium, OVCA420 and OVCA432 were maintained in 105/199 medium and OVCA420 and CAOV3 cells were maintained in DMEM medium. For 3-(4,5-dimethylthiazol-2-yl)-5-(3-carboxymethoxyphenyl)-2-(4-sulfophenyl)-2H-tetrazolium (MTS) assays, transfections mediated by cationic lipid were performed in 96-well plates. Cells were seeded on a complex of the appropriate siRNA (QIAGEN® Inc., Germantown, Md.) and Oligofectamine (Invitrogen, Carlsbad, Calif.) in unsupplemented growth medium. Final amounts in each well were 50 nM siRNA, 0.5 ul Oligofectamine, and 3000 cells in 100 μL medium. The siRNA target sequences of the synthetic siRNAs were designed against the reference RNA sequence.
MTS proliferation assay. Cell line sensitivity to chemotherapeutic reagents such as cisplatin or taxol was determined by measuring formazan production from MTS (PROMEGA®, Madison, Wis.), with drug concentrations tested in octuplicates in each experiment. For example, serial dilutions of cisplatin or taxol were made shortly before addition to cells. At 48 hours after transfection and seeding, cells were washed by aspiration of the supernatant, and 150 uL of drug-containing medium is added. Another 48 hours later, the drug solution was aspirated and 120 uL MTS-containing medium is added according to the manufacturer's protocol (PROMEGA® #G3580, Madison, Wis.). The plates were incubated at 37° C. and read at 490 nm after 3 hours. Using GraphPad PRISM® 4.02 (GraphPad Software Inc., San Diego, Calif.), the drug concentrations were log-transformed and nonlinear regression is performed on the A490 data using the sigmoidal dose response model with variable slope. Mean EC50 values, standard errors, and 95% confidence intervals were determined from the logistic fits.
(§1) As described above in Example 1, A2780CP20 ovarian cancer cell lines were transfected with siPOLH-2 or siPOLH-5, treated with cisplatin starting 48 hours later, and assayed with MTS 48 hours thereafter. Viable cell number data was acquired by reading the fluorescence emissions at 490 nm. Using GraphPad Prism 4.02, cisplatin drug concentrations were log-transformed and nonlinear regression performed on the A490 data using the sigmoidal dose response model with variable slope to generate the IC50 curves. IC50 values and 95% confidence intervals were determined from the logistic fits.
as §1, with “A2780CP20” for “As described above in Example 1, A2780CP20”, “siREV3L-1” for “siPOLH-2”, “siREV3L-2,” for “siPOLH-5,”, “thereafter (as described above, including Example 1).” for “thereafter.”, “fits. […] Further, a 2.1 fold change in cisplatin sensitivity was detected for siREV3L-1 pretreatment and a 2.9 fold change in such sensitivity for siREV3L-2 pretreatment.” for “fits.”
as §1, with “FIG. 5 illustrates the effect of pretreatment with RNAi against POLH and REV3L on cisplatin resistance.” for “As described above in Example 1,”, “cotransfected” for “transfected”, “siPOLH-5 and siREV3L-2,” for “siPOLH-2 or siPOLH-5,”

POLH = assay: Western blot analysis for POLH after POLH siRNA treatment; assay type: cell-based; details: lysates at 24, 48, 72 and 96 hours; 5 ul of 1 ug/ul POLH-siRNA
Procedure: Cell lysates were collected and examined by Western blot analysis for POLH. After treating cells with 5 ul of 1 ug/ul POLH-siRNA, lysates were collected at 24, 48, 72 and 96 hours and then analyzed for down-regulation of POLH.

## siPOLH-2: synthetic siRNA against POLH (exon 10), Qiagen cat #SI00089012, SEQ ID NO:8 sense and SEQ ID NO:9 antisense (sense CCAUUUAGGUGCUGAGUUATT; antisense UAACUCAGCACCUAAAUGGAG; sugars from the 5' end r19 d2, backbone not given here)
[1]
  cell sensitivity to cisplatin when compared to cells treated with siNEG: significantly increased
  fold change in cisplatin sensitivity: 1.6 fold

## siPOLH-5: synthetic siRNA against POLH (exon 11), Qiagen cat #SI02663619, SEQ ID NO:11 sense and SEQ ID NO:12 antisense (sense GGUUGUGAGCAUUCGUGUATT; antisense UACACGAAUGCUCACAACCTG; sugars from the 5' end r19 d2, backbone not given here)
POLH
  POLH expression (down-regulation of POLH): inhibit POLH RNA expression
[1]
  cell sensitivity to cisplatin when compared to cells treated with siNEG: significantly increased
  fold change in cisplatin sensitivity: 1.9 fold

## siREV3L-1: synthetic siRNA against REV3L (exon 18), Qiagen cat #SI00045626, SEQ ID NO:2 sense and SEQ ID NO:3 antisense (sense GGAUGUAGUCAAACUGCAATT; antisense UUGCAGUUUGACUACAUCCAG; sugars from the 5' end r19 d2, backbone not given here)
[1]
  cell sensitivity to cisplatin when compared to cells treated with siNEG: significantly increased
  fold change in cisplatin sensitivity: 2.1 fold

## siREV3L-2: synthetic siRNA against REV3L (exon 17), Qiagen cat #SI00045633, SEQ ID NO:5 sense and SEQ ID NO:6 antisense (sense CACUGGAAUUAAUGCACAATT; antisense UUGUGCAUUAAUUCCAGUGTG; sugars from the 5' end r19 d2, backbone not given here)
[1]
  cell sensitivity to cisplatin when compared to cells treated with siNEG: significantly increased
  fold change in cisplatin sensitivity: 2.9 fold
